Measured values: PubChem BioAssay AID248 (DTP/NCI, 2004)
Values joined by “and” are separate entries in the source; they are usually repeats but may differ in a detail not shown here. Equal values may be shown once. Toxic doses and inconclusive results are not listed. Cut-off read from the data, not from the text of the source: active = T/C of 150% or more; inactive = T/C below 125%.

Test system: L1210 leukemia ip in BDF1 mice, survival T/C
Test: NCI In Vivo Anticancer Drug Screen. Data for tumor model L1210 Leukemia (intraperitoneal) in B6D2F1 (BDF1) mice
Conditions: endpoint: mean survival time, higher = longer survival
Outline: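 Tumor cells were implanted, animals were treated, and survival was followed. The result divides the treated measurement by the vehicle-control measurement.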

[1] = dose: 100.0 mg/kg/injection, schedule: Q04DX003 (ip), vehicle: Klucel (hydroxypropylcellulose) (HPC)
[2] = dose: 100.0 mg/kg/injection, schedule: Q01DX001 (ip), vehicle: saline
[3] = dose: 200.0 mg/kg/injection, schedule: Q01DX001 (ip), vehicle: saline
[4] = dose: 400.0 mg/kg/injection, schedule: Q01DX001 (ip), vehicle: saline
[5] = dose: 50.0 mg/kg/injection, schedule: Q01DX001 (ip), vehicle: saline
[6] = dose: 100.0 mg/kg/injection, schedule: Q04DX003 (ip), vehicle: saline with Tween-80
[7] = dose: 200.0 mg/kg/injection, schedule: Q04DX003 (ip), vehicle: saline with Tween-80
[8] = dose: 400.0 mg/kg/injection, schedule: Q04DX003 (ip), vehicle: saline with Tween-80
[9] = dose: 100.0 mg/kg/injection, schedule: Q01DX009 (ip), vehicle: Klucel (hydroxypropylcellulose) (HPC)
[10] = dose: 200.0 mg/kg/injection, schedule: Q01DX009 (ip), vehicle: Klucel (hydroxypropylcellulose) (HPC)
[11] = dose: 200.0 mg/kg/injection, schedule: Q04DX003 (ip), vehicle: Klucel (hydroxypropylcellulose) (HPC)
[12] = dose: 400.0 mg/kg/injection, schedule: Q01DX009 (ip), vehicle: Klucel (hydroxypropylcellulose) (HPC)
[13] = dose: 400.0 mg/kg/injection, schedule: Q04DX003 (ip), vehicle: Klucel (hydroxypropylcellulose) (HPC)

Measured: T/C

C=CCOCC(O)CN(C)CCCCCCCCCCCC (configuration not stated)
inactive: dose: 6.0 mg/kg/injection, schedule: Q04DX003 (ip), vehicle: Klucel (hydroxypropylcellulose) (HPC) 98 % of control | dose: 12.0 mg/kg/injection, schedule: Q04DX003 (ip), vehicle: Klucel (hydroxypropylcellulose) (HPC) 96 % of control | dose: 25.0 mg/kg/injection, schedule: Q01DX009 (ip), vehicle: Klucel (hydroxypropylcellulose) (HPC) 109 % of control | dose: 25.0 mg/kg/injection, schedule: Q04DX003 (ip), vehicle: Klucel (hydroxypropylcellulose) (HPC) 93 % of control and 96 % of control | dose: 50.0 mg/kg/injection, schedule: Q01DX009 (ip), vehicle: Klucel (hydroxypropylcellulose) (HPC) 109 % of control | [1] 96 % of control

CCN(CC)CCN(CC(=O)O)CC(=O)O
inactive: [2] 108 % of control and 98 % of control | [3] 90 % of control and 102 % of control | [4] 96 % of control and 102 % of control

O=[N+]([O-])c1ccc(Oc2ccc(F)cc2)c([N+](=O)[O-])c1
inactive: [5] 103 % of control | [2] 103 % of control | [3] 97 % of control | [4] 105 % of control

CCc1ccc(NC(C)=O)cc1
inactive: [6] 105 % of control | [7] 94 % of control | [8] 102 % of control

CCCCCCCC(=O)c1ccc(NC(C)=O)cc1
inactive: [9] 103 % of control | [1] 99 % of control | [10] 95 % of control | [11] 92 % of control | [12] 102 % of control | [13] 100 % of control

CCCCn1c(C)cc2c(c1=O)COC(=O)C2CC (configuration not stated)
inactive: dose: 2.5 mg/kg/injection, schedule: Q04DX003 (ip), vehicle: saline 100 % of control | dose: 5.0 mg/kg/injection, schedule: Q04DX003 (ip), vehicle: saline 100 % of control | dose: 10.0 mg/kg/injection, schedule: Q04DX003 (ip), vehicle: saline 95 % of control | dose: 20.0 mg/kg/injection, schedule: Q04DX003 (ip), vehicle: saline 97 % of control | dose: 40.0 mg/kg/injection, schedule: Q04DX003 (ip), vehicle: saline 94 % of control | dose: 80.0 mg/kg/injection, schedule: Q04DX003 (ip), vehicle: saline 95 % of control

O=C1C(c2[nH]c3cc4c(cc3c2O)OCO4)=Nc2cc3c(cc21)OCO3
inactive: [5] 100 % of control | [2] 103 % of control | [3] 97 % of control | [4] 94 % of control

Cc1ccc(S(=O)(=O)OCCN(CCOS(=O)(=O)c2ccc(C)cc2)c2cccc(F)c2)cc1
inactive: dose: 50.0 mg/kg/injection, schedule: Q01DX001 (ip), vehicle: carboxymethylcellulose (CMC) 101 % of control and 114 % of control | dose: 90.0 mg/kg/injection, schedule: Q01DX001 (ip), vehicle: carboxymethylcellulose (CMC) 103 % of control and 122 % of control | dose: 100.0 mg/kg/injection, schedule: Q01DX001 (ip), vehicle: carboxymethylcellulose (CMC) 103 % of control and 106 % of control | dose: 135.0 mg/kg/injection, schedule: Q01DX001 (ip), vehicle: carboxymethylcellulose (CMC) 106 % of control and 110 % of control | dose: 300.0 mg/kg/injection, schedule: Q01DX001 (ip), vehicle: carboxymethylcellulose (CMC) 115 % of control and 120 % of control | dose: 400.0 mg/kg/injection, schedule: Q01DX001 (ip), vehicle: carboxymethylcellulose (CMC) 109 % of control and 116 % of control

O=C(O)/C=C/S(=O)(=O)Cc1ccccc1
inactive: [1] 98 % of control | [11] 100 % of control

COc1ccc(S(=O)(=O)NC(=O)NC(=O)CC=C(C)C)cc1
inactive: dose: 50.0 mg/kg/injection, schedule: Q04DX002 (ip), vehicle: Klucel (hydroxypropylcellulose) (HPC) 103 % of control | [9] 105 % of control | dose: 100.0 mg/kg/injection, schedule: Q04DX002 (ip), vehicle: Klucel (hydroxypropylcellulose) (HPC) 96 % of control | [1] 110 % of control | [10] 95 % of control | dose: 200.0 mg/kg/injection, schedule: Q04DX002 (ip), vehicle: Klucel (hydroxypropylcellulose) (HPC) 103 % of control | [11] 98 % of control | [12] 97 % of control | [13] 104 % of control

CCC(C#N)(c1ccccc1)c1ccccc1
inactive: [9] 96 % of control | [1] 98 % of control | [10] 94 % of control | [11] 94 % of control | [12] 94 % of control | [13] 98 % of control

NC(N)=NCCCCCCN=C(N)N
inactive: dose: 6.25 mg/kg/injection, schedule: Q01DX Z (oral), vehicle: saline 106 % of control | dose: 6.25 mg/kg/injection, schedule: Q04DX003 (ip), vehicle: saline with Tween-80 100 % of control | dose: 12.5 mg/kg/injection, schedule: Q01DX Z (oral), vehicle: saline 103 % of control | dose: 12.5 mg/kg/injection, schedule: Q04DX003 (ip), vehicle: saline with Tween-80 100 % of control | dose: 25.0 mg/kg/injection, schedule: Q01DX Z (oral), vehicle: saline 103 % of control | dose: 25.0 mg/kg/injection, schedule: Q04DX003 (ip), vehicle: saline with Tween-80 99 % of control and 101 % of control

C1CC2CCCC3CC(B4OCCO4)CC(C1)C23 (configuration not stated) (tested in a mixture with another compound)
inactive: dose: 100.0 mg/kg/injection, schedule: Q01DX009 (ip), vehicle: other 101 % of control | [6] 97 % of control | dose: 200.0 mg/kg/injection, schedule: Q01DX009 (ip), vehicle: other 105 % of control | [7] 92 % of control | dose: 400.0 mg/kg/injection, schedule: Q01DX009 (ip), vehicle: other 108 % of control | [8] 106 % of control
